Reference: patent US4529720A, “Antibiotic from Streptomyces clavulicerus” (Beecham Group, p.l.c., priority 1974, dated 1985)
Counter-ions that a name gives are not always drawn.

Key:
Klebsiella aerogenes A [1] = assay: Antibacterial synergism, microtitre MIC (Example 42); assay type: cell-based; conditions: Table 8; method of Example 42
[2] = tested on: Klebsiella aerogenes E 70; assay: as above; assay type: cell-based; conditions: Table 8; method of Example 42
Klebsiella aerogenes 62 = assay: as above; assay type: cell-based; conditions: Table 8; method of Example 42
Klebsiella aerogenes A [3] = assay: Growth inhibition, alone and combined (description); assay type: cell-based; conditions: 5 μg/ml of clavulanic acid also present
Staphylococcus aureus = assay: Antibacterial synergism, microtitre MIC (Example 42); assay type: cell-based; conditions: Table 6
[4] = tested on: Staphylococcus aureus (Russell); assay: as above; assay type: cell-based
[5] = Hydrolysis of methyl ester in pH 7 phosphate buffer; assay type: physicochemical; conditions: 1 mg/ml, 37° C., 0.05M phosphate buffer pH 7, followed over 2 hours
Procedure: The reaction was followed by paper chromatography (bioautographic system). Using the butanol/ethanol/water system to follow the reaction over a period of 2 hours the zone of the methyl ester at Rf 0.79 decreased in size as the zone of clavulanic acid at Rf 0.12 increased.

bacteria = assay: Tests for antibacterial activity in broth (Example 32); assay type: cell-based; conditions: against bacteria resistant to these antibiotics
Stability in human blood = assay type: in vitro ADME

With CC1(C)S[C@@H]2[C@H](NC(=O)[C@H](N)c3ccccc3)C(=O)N2[C@H]1C(=O)O [Ampicillin, ampicillin] the “M.I.C., Ampicillin + 5 μg/ml of Benzyl Ester of clavulanic acid” value (Klebsiella aerogenes A [1]) was 1.9, the “M.I.C., Ampicillin + 5 μg/ml of Methyl Ester of clavulanic acid” value (Klebsiella aerogenes A [1]) was 1.9 and the “M.I.C., Ampicillin + 5 μg/ml of Benzyl Ester of clavulanic acid” value [2] was 3.9. For the same molecule, the “M.I.C., Ampicillin + 5 μg/ml of Methyl Ester of clavulanic acid” value [2] was 3.9, the “M.I.C., Ampicillin + 5 μg/ml of Benzyl Ester of clavulanic acid” value (Klebsiella aerogenes 62) was 3.9 and the “M.I.C., Ampicillin + 5 μg/ml of Methyl Ester of clavulanic acid” value (Klebsiella aerogenes 62) was 3.9.
For CC1(C)S[C@@H]2[C@H](NC(=O)Cc3ccccc3)C(=O)N2[C@H]1C(=O)O [Benzylpenicillin, benzylpenicillin], the “concentration of penicillin inhibiting growth when clavulanic acid is also present” value (Klebsiella aerogenes A [3]) was “less than 12.5 μg/ml”.
With O=C(Cc1cccs1)N[C@@H]1C(=O)N2C(C(=O)[O-])=C(C[n+]3ccccc3)CS[C@H]12 [Cephaloridine, cephaloridine] the “Minimum Inhibitory Concentrations, Cephaloridine in presence of 5 μg/ml clavulanic acid sodium salt” value (Staphylococcus aureus; in presence of 5 μg/ml clavulanic acid sodium salt) was 3.7 µg/mL and the “Minimum Inhibitory Concentration of cephaloridine when synergist added at 1 μg/ml” value ([4]; clavulanic acid sodium salt at 1 μg/ml, compared with <0.03 μg/ml at 5 μg/ml, footnote of Table 6) was “Same value”.
In the case of COC(=O)[C@H]1/C(=C/CO)O[C@@H]2CC(=O)N21 [clavulanic acid methyl ester], the “hydrolysis of the ester to clavulanic acid” value [5] is reported as “Slow conversion of the ester to clavulanic acid”, the “hydrolysis of the ester to clavulanic acid” value ([5]; listed as methyl ester) is reported as “slowly hydrolyse to clavulanic acid” and the “antibacterial synergism in combination with ampicillin or cephaloridine” value (bacteria) is reported as “marked antibacterial synergism”.
In the case of O=C(O)[C@H]1/C(=C/CO)O[C@@H]2CC(=O)N21 [clavulanic acid sodium salt, 3-(β-hydroxyethylidine)-7-oxo-4-oxa-1-azabicyclo[3,2,0]heptane-2-carboxylic acid sodium salt], the “Minimum Inhibitory Concentrations” value (Staphylococcus aureus; agent alone) is reported as 62 µg/mL and the “Minimum Inhibitory Concentrations” value ([4]; agent alone, Table 6) is reported as 15 µg/mL.
For O=C(O)[C@H]1/C(=C/CO)O[C@@H]2CC(=O)N21 [clavulanic acid, Z-(2R,5R)-3-(β-hydroxyethylidene)-7-oxo-4-oxa-1-azabicyclo[3,2,0]heptane-2-carboxylic acid], the “stability in human blood” value (Stability in human blood) was “high stability in human blood”.
